Test results published in patent US20100273816A1, “Quinazoline Compounds” (priority 2007, published 2010).

Experiments:
human LXRα = biological target: T1, human LXRα (Homo sapiens, UniProt Q13133); test: Ligand-binding test procedure for human LXRα (3H T0901317 tracer, flash plates); settings: biotinylated hLXRα from E. coli extract, +4° C. over night, read-out: hLXRa binding assay Mean IC50
T1 construct: biotin (biotinylated); made in house; host or cells: E. coli (crude extract)
T1 sequence (Q13133 1-447): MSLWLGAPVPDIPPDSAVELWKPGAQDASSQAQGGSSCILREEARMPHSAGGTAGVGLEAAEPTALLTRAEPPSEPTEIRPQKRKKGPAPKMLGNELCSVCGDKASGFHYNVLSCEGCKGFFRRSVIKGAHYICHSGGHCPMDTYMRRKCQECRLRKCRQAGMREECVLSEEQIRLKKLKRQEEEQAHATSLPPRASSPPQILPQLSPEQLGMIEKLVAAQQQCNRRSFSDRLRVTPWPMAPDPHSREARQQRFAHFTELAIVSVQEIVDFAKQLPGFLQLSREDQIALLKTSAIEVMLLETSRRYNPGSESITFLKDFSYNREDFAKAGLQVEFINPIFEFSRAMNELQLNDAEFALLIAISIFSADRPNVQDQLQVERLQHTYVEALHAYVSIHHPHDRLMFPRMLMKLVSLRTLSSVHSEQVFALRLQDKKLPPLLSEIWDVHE
Description: II. Ligand-Binding Test Procedure for Human LXRα.
(§1) Buffer: 100 mM KCl, 100 mM TRIS (pH 7.4 at +4° C.), 8.6% glycerol, 0.1 mM PMSF*, 2 mM MTG*, 0.2% CHAPS (* not used in wash buffer)
Receptor source: E. coli extract from cells expressing biotinylated hLXRα. Extract was made in a similar buffer as above, but with 50 mM TRIS.
(§2) Washed streptavidin and coated flash plates with wash buffer.
(§3) Diluted receptor extract to give Bmax ˜4000 cpm and add to the wells.
(§4) Wrapped the plates in aluminum foil and stored them at +4° C. over night.
(§5) Made a dilution series in DMSO of the test ligands.
(§6) Made a 5 nM solution of the radioactive tracer in buffer.
Mixed 250 μl diluted tracer with 5 μl of the test ligand from each concentration of the dilution series.
(§7) Washed the receptor-coated flash plates.
(§8) Added 200 μl per well of the ligand/radiolabel mixture to the receptor-coated flash plates.
(§9) Wrapped the plates in aluminum foil and incubate at +4° C. over night.
(§10) Aspirated wells, and wash the flashed plates. Sealed the plate.
(§11) Measured the remaining radioactivity in the plate.

human LXRβ = biological target: T2, human LXRβ (Homo sapiens, UniProt P55055); test: Ligand-binding test procedure for human LXRβ (3H T0901317 tracer, flash plates); settings: biotinylated hLXRβ from E. coli extract, +4° C. over night, read-out: hLXRB binding assay Mean IC50
T2 construct: biotin (biotinylated); made in house; host or cells: E. coli (crude extract)
T2 sequence (P55055 1-460): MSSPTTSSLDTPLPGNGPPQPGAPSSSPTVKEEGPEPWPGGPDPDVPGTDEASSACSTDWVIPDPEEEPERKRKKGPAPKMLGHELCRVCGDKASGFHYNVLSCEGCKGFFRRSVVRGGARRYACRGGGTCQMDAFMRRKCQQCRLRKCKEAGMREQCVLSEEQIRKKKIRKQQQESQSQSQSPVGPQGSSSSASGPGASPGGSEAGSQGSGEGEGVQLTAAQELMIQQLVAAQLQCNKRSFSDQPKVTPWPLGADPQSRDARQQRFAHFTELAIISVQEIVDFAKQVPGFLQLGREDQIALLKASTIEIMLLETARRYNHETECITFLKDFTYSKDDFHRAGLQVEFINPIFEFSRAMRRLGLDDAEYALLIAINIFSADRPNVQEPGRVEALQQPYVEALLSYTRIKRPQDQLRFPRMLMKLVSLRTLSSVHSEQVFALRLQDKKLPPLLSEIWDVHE
Description: I. Ligand-Binding Test Procedure for Human LXRβ.
as §1
Receptor source: E. coli extract from cells expressing biotinylated hLXRβ. Extract was made in a similar buffer as above, but with 50 mM TRIS.
as §2, §3, §4, §5, §6
Mixed 250 μl diluted tracer with 50 of the test ligand from each concentration of the dilution series.
as §7, §8, §9, §10, §11

SMILES	IC50 (human LXRα)	IC50 (human LXRβ)
CS(=O)(=O)c1cccc(Oc2cccc(-c3ncnc4c(C(F)(F)F)cccc34)c2)c1 [Example 4, 4-{3-[3-(Methylsulfonyl)phenoxy]phenyl}-8-(trifluoromethyl)quinazoline]	1.82 µM	0.151 µM
CCS(=O)(=O)c1cccc(Oc2cccc(-c3ncnc4c(C(F)(F)F)cccc34)c2)c1 [Example 5, 4-{3-[3-(ethylsulfonyl)phenoxy]phenyl}-8-(trifluoromethyl)quinazoline]	1.57 µM	0.101 µM
CC(C)S(=O)(=O)c1cccc(Oc2cccc(-c3ncnc4c(C(F)(F)F)cccc34)c2)c1 [Example 6, 4-{3-[3-(isopropylsulfonyl)phenoxy]phenyl}-8-(trifluoromethyl)quinazoline]	1.02 µM	0.063 µM
COCCCS(=O)(=O)c1cccc(Oc2cccc(-c3ncnc4c(C(F)(F)F)cccc34)c2)c1 [Example 7, 4-(3-{3-[(3-methoxypropyl)sulfonyl]phenoxy}phenyl)-8-(trifluoromethyl)quinazoline]	4.99 µM	0.651 µM
CCCS(=O)(=O)c1cc(Cl)cc(Oc2cccc(-c3ncnc4c(C(F)(F)F)cccc34)c2)c1 [Example 8, 4-{3-[3-chloro-5-(propylsulfonyl)phenoxy]phenyl}-8-(trifluoromethyl)quinazoline]	> 1 µM	> 1 µM
O=S(=O)(CCCO)c1cc(Cl)cc(Oc2cccc(-c3ncnc4c(C(F)(F)F)cccc34)c2)c1 [Example 9, 3-[(3-chloro-5-{3-[8-(trifluoromethyl)quinazolin-4-yl]phenoxy}phenyl)sulfonyl]propan-1-ol]	> 1 µM	
CS(=O)(=O)c1ccc(Oc2cccc(-c3ncnc4c(C(F)(F)F)cccc34)c2)cc1 [Example 10, 4-{3-[4-(methylsulfonyl)phenoxy]phenyl}-8-(trifluoromethyl)quinazoline]	26.1 µM	3.62 µM
CCS(=O)(=O)c1ccc(Oc2cccc(-c3ncnc4c(C(F)(F)F)cccc34)c2)cc1 [Example 11, 4-{3-[4-(ethylsulfonyl)phenoxy]phenyl}-8-(trifluoromethyl)quinazoline]	> 1 µM	2.24 µM
CCCS(=O)(=O)c1ccc(Oc2cccc(-c3ncnc4c(C(F)(F)F)cccc34)c2)cc1 [Example 12, 4-{3-[4-(propylsulfonyl)phenoxy]phenyl}-8-(trifluoromethyl)quinazoline]	> 1 µM	> 1 µM
CC(C)S(=O)(=O)c1ccc(Oc2cccc(-c3ncnc4c(C(F)(F)F)cccc34)c2)cc1 [Example 13, 4-{3-[4-(isopropylsulfonyl)phenoxy]phenyl}-8-(trifluoromethyl)quinazoline]	> 1 µM	1.54 µM
CCCS(=O)(=O)c1cccc(Oc2cccc(-c3ncnc4c(C(F)(F)F)cccc34)c2)c1 [Example 15, 4-{3-[3-(propylsulfonyl)phenoxy]phenyl}-8-(trifluoromethyl)quinazoline]	4.42 µM	0.449 µM
CC(C)CS(=O)(=O)c1cccc(Oc2cccc(-c3ncnc4c(C(F)(F)F)cccc34)c2)c1 [Example 16, 4-{3-[3-(isobutylsulfonyl)phenoxy]phenyl}-8-(trifluoromethyl)quinazoline]	> 1 µM	> 1 µM
CC(C)CCS(=O)(=O)c1cccc(Oc2cccc(-c3ncnc4c(C(F)(F)F)cccc34)c2)c1 [Example 17, 4-(3-{3-[(3-methylbutyl)sulfonyl]phenoxy}phenyl)-8-(trifluoromethyl)quinazoline]	> 1 µM	> 1 µM
O=S(=O)(CCCO)c1cccc(Oc2cccc(-c3ncnc4c(C(F)(F)F)cccc34)c2)c1 [Example 18, 3-[(3-{3-[8-(trifluoromethyl)quinazolin-4-yl]phenoxy}phenyl)sulfonyl]propan-1-ol]	3.54 µM	0.412 µM
O=S(=O)(CCCO)c1ccc(Oc2cccc(-c3ncnc4c(C(F)(F)F)cccc34)c2)cc1 [Example 19, 3-[(4-{3-[8-(trifluoromethyl)quinazolin-4-yl]phenoxy}phenyl)sulfonyl]propan-1-ol]	64.8 µM	19.1 µM
CS(=O)(=O)c1cc(F)cc(Oc2cccc(-c3ncnc4c(C(F)(F)F)cccc34)c2)c1 [Example 20, 4-{3-[3-fluoro-5-(methylsulfonyl)phenoxy]phenyl}-8-(trifluoromethyl)quinazoline]	6.33 µM	0.398 µM
Cc1nc(-c2cccc(Oc3cccc(S(C)(=O)=O)c3)c2)c2cccc(C(F)(F)F)c2n1 [Example 21, 2-methyl-4-{3-[3-(methylsulfonyl)phenoxy]phenyl}-8-(trifluoromethyl)quinazoline]	13.8 µM	0.433 µM
CS(=O)(=O)c1cccc(Oc2cccc(-c3ncnc4c(Cl)cccc34)c2)c1 [Example 24, 8-chloro-4-{3-[3-(methylsulfonyl)phenoxy]phenyl}quinazoline]	5.32 µM	0.295 µM
CS(=O)(=O)c1cccc(COc2cccc(-c3ncnc4c(C(F)(F)F)cccc34)c2)c1 [Example 25, 4-(3-{[3-(methylsulfonyl)benzyl]oxy}phenyl)-8-(trifluoromethyl)quinazoline]	2.83 µM	0.285 µM
CS(=O)(=O)c1cccc(-c2cccc(-c3ncnc4c(C(F)(F)F)cccc34)c2)c1 [Example 27, 4-(3′-Methanesulfonyl-biphenyl-3-yl)-8-trifluoromethyl-quinazoline]	1.67 µM	0.194 µM
Cc1nc(-c2cccc(-c3cccc(S(C)(=O)=O)c3)c2)c2cccc(C(F)(F)F)c2n1 [Example 37, 4-(3′-Methanesulfonyl-biphenyl-3-yl)-2-methyl-8-trifluoromethyl-quinazoline]	0.706 µM	0.069 µM
Cc1nc(-c2cccc(-c3ccc(S(C)(=O)=O)cc3)c2)c2cccc(C(F)(F)F)c2n1 [Example 38, 4-(4′-Methanesulfonyl-biphenyl-3-0)-2-methyl-8-trifluoromethyl-quinazoline]		6.27 µM
CCc1nc(-c2cccc(-c3cccc(S(C)(=O)=O)c3)c2)c2cccc(C(F)(F)F)c2n1 [Example 40, 2-ethyl-4-[3′-(methylsulfonyl)biphenyl-3-yl]-8-(trifluoromethyl)quinazoline]	1.14 µM	0.097 µM
CCCc1nc(-c2cccc(-c3cccc(S(C)(=O)=O)c3)c2)c2cccc(C(F)(F)F)c2n1 [Example 41, 4-[3′-(methylsulfonyl)biphenyl-3-yl]-2-propyl-8-(trifluoromethyl)quinazoline]	> 1 µM	0.175 µM
CC(C)c1nc(-c2cccc(-c3cccc(S(C)(=O)=O)c3)c2)c2cccc(C(F)(F)F)c2n1 [Example 42, 2-isopropyl-4-[3′-(methylsulfonyl)biphenyl-3-yl]-8-(trifluoromethyl)quinazoline]	3.25 µM	0.452 µM
CS(=O)(=O)c1cccc(-c2cccc(-c3nc(-c4ccccc4)nc4c(C(F)(F)F)cccc34)c2)c1 [Example 43, 4-[3′-(methylsulfonyl)biphenyl-3-yl]-2-phenyl-8-(trifluoromethyl)quinazoline]	20.3 µM	0.309 µM
CC(C)(C(=O)O)c1ccc(COc2cccc(-c3ncnc4c(C(F)(F)F)cccc34)c2)cc1 [Example 44, 2-methyl-2-[4-({3-[8-(trifluoromethyl)quinazolin-4-yl]phenoxy}methyl)phenyl]propanoic acid]	> 1 µM	> 1 µM
O=C(O)Cc1ccc(COc2cccc(-c3ncnc4c(C(F)(F)F)cccc34)c2)cc1 [Example 45, [4-({3-[8-(trifluoromethyl)quinazolin-4-yl]phenoxy}methyl)phenyl]acetic acid]	> 1 µM	5.29 µM
